Test results from the Biogen ADME set (Fang et al. 2023).
Converted amounts (≈) assume the structure as drawn.

Settings: for aqueous solubility: pH 6.8

Row | MDR1-MDCK efflux ratio | intrinsic clearance, human liver microsomes | intrinsic clearance, rat liver microsomes | aqueous solubility | fraction unbound, human plasma | fraction unbound, rat plasma | SMILES
1 | 0.943 | ≤ 4.74 mL/min/kg | 25.7 mL/min/kg | 76.3 µg/mL (≈ 251 µM) |  |  | CN(c1ncc(Br)cn1)C1CCS(=O)CC1 (configuration not stated)
2 | 0.57 | 27.1 mL/min/kg | 271 mL/min/kg |  |  |  | Cn1c(SCOCc2ccccc2)nnc1C1CC1
3 |  |  |  | 42.5 µg/mL (≈ 145 µM) |  |  | N#C/C(=C\c1ccc(O)c(O)c1)C(=O)NCc1ccccc1
4 | 0.469 | 16.8 mL/min/kg | 162 mL/min/kg |  | 0.045 | 0.0437 | Fc1ccc(-c2ccc3c(c2)[nH]c2ccncc23)cn1
5 | 1.16 | 24 mL/min/kg | 74.9 mL/min/kg |  |  |  | Cc1c(C(=O)Nc2ccc(N3C[C@@H](C)O[C@H](C)C3)nc2)cccc1-c1ccc(OC(F)(F)F)cc1
6 | 5.64 | 16.3 mL/min/kg | 475 mL/min/kg |  |  |  | COCC1(CNC(=O)c2cc(Cl)cnc2O)CCC1
7 | 1.26 | ≤ 4.74 mL/min/kg | 138 mL/min/kg |  |  |  | COc1cccc(Oc2ccc(NC(=O)CN3CCOCC3)cn2)c1
8 |  |  |  | 0.4 µg/mL (≈ 0.832 µM) |  |  | C=CC(=O)Nc1cccc(Sc2nc(Nc3ccc(N4CCN(C)CC4)cc3)ncc2Cl)c1
9 |  | 31.2 mL/min/kg | 729 mL/min/kg |  |  |  | Cc1cccc2cnc(C3CCN(C(=O)CCc4ccno4)CC3)cc12
10 | 6.24 | 84.8 mL/min/kg | 108 mL/min/kg | 56.6 µg/mL (≈ 127 µM) |  |  | Cn1c(=O)n(C)c2cc(CN3CCC(c4ccc(Cc5ccccc5F)cn4)CC3)ccc21
11 |  | ≤ 4.74 mL/min/kg | ≤ 10.7 mL/min/kg |  |  |  | c1ccc(-c2noc(C3CCNCC3)n2)nc1
12 | 98 | 53.3 mL/min/kg | 651 mL/min/kg | 57.5 µg/mL (≈ 128 µM) | 0.0331 | 0.0384 | CC(=O)Nc1ccc(C(=O)N2CCCCC2c2nc(N)ncc2-c2cccc(Cl)c2)cc1 (configuration not stated)
13 | 0.316 |  |  | 0.7 µg/mL (≈ 1.84 µM) | 0.00631 | 0.0241 | CC1(C)Cc2cc(NC(=O)c3cnn4cccnc34)c(OCC3CC3)nc2O1
14 |  | 6.09 mL/min/kg | 38.7 mL/min/kg |  |  |  | COc1ccc2c(c1)CC[C@@H]1[C@@H]2CC[C@]2(C)[C@@H](NCCCCCCN3C(=O)C=CC3=O)CC[C@@H]12
15 | 0.571 |  |  | 0.9 µg/mL (≈ 3.06 µM) |  |  | Cc1nc(-c2ccccc2)c(C(=O)Nc2ccccc2)s1
16 |  | ≤ 4.74 mL/min/kg | ≤ 10.7 mL/min/kg |  |  |  | COc1cc(OC)c2c(=O)cc(CCC(=O)O)oc2c1
17 | 0.548 | 5.24 mL/min/kg | 15.2 mL/min/kg |  |  |  | Cc1nccc(NC(=O)c2ccc(Cl)nc2Cl)n1
18 | 45.8 | 42.8 mL/min/kg | 165 mL/min/kg | 24.4 µg/mL (≈ 54.9 µM) |  |  | O=C1NCC2(C/C=C/CCOc3ccccc31)CCN(C(=O)c1ccc3[nH]nnc3c1)CC2
19 |  |  |  | 16 µg/mL (≈ 51.2 µM) |  |  | CN(Cc1cnccn1)C(=O)c1cc(-c2ccc(F)cc2)on1

Row | MDR1-MDCK efflux ratio | intrinsic clearance, human liver microsomes | intrinsic clearance, rat liver microsomes | aqueous solubility | fraction unbound, human plasma | fraction unbound, rat plasma | SMILES
20 | 23.7 | 13 mL/min/kg | 355 mL/min/kg | 42.1 µg/mL (≈ 130 µM) |  |  | Cc1ccsc1CN(C)C(=O)[C@@H]1CCCN1C(=O)NC(C)C
21 | 0.992 | 22.1 mL/min/kg | 196 mL/min/kg | 5.3 µg/mL (≈ 15.6 µM) |  |  | O=C(NCc1ccc(-n2cncn2)nc1)c1csc2c1CCCC2
22 | 30.1 | ≤ 4.74 mL/min/kg | 82.1 mL/min/kg |  |  |  | COc1cccc(C(=O)N(C)CC(F)(F)F)c1OCCCN
23 |  | ≤ 4.74 mL/min/kg | ≤ 10.7 mL/min/kg |  |  |  | O=C(CCC1CCOCC1)Nc1ccc(C(=O)O)cc1
24 | 41.3 | 7.76 mL/min/kg | 210 mL/min/kg | 50 µg/mL (≈ 131 µM) |  |  | CC(C)c1cnn2c(NCc3ccccc3)cc(NCCCCCCN)nc12
25 | 0.531 | 13 mL/min/kg | 734 mL/min/kg |  |  |  | C=CCNc1ncc(-c2cnccn2)c(C2CC2)n1
26 | 4.68 | 11.9 mL/min/kg | 206 mL/min/kg | 80.7 µg/mL (≈ 252 µM) |  |  | O=C(C1CCC(O)CC1)N1CCCN(c2ccc(F)cc2)CC1 (configuration not stated)
27 | 13.5 | ≤ 4.74 mL/min/kg | 20.5 mL/min/kg | 73.1 µg/mL (≈ 141 µM) |  |  | COc1cc(Nc2ncc3c(n2)-c2ccc(Cl)cc2C(c2c(F)cccc2OC)=NC3)ccc1C(=O)O
28 |  | ≤ 4.74 mL/min/kg | 63.7 mL/min/kg |  |  |  | O=c1oc2cccnc2n1Cc1cnn(-c2ccccc2)n1
29 | 0.814 | ≤ 4.74 mL/min/kg | ≤ 10.7 mL/min/kg |  |  |  | Cc1nc2ncc3c(n2n1)CC(C)(C)CC3=O
30 | 0.671 | 23.1 mL/min/kg | 75.4 mL/min/kg | 31.8 µg/mL (≈ 135 µM) |  |  | Cc1ccc(-c2cnc(N)cn2)c2cccnc12
31 |  |  |  | 0.39 µg/mL (≈ 1.06 µM) |  |  | COc1cc(OC)cc(C(=O)Nc2nc3c(s2)COc2ccccc2-3)c1
32 |  | 33.2 mL/min/kg | 302 mL/min/kg |  |  |  | Cc1ccccc1-c1cc(N)n(Cc2ccccc2)n1
33 | 12.5 | 101 mL/min/kg | 1270 mL/min/kg |  |  |  | Cc1cccc(NC(=O)CN(C)Cc2nc3ccc(Cl)cc3c(=O)[nH]2)c1C
34 | 0.765 | ≤ 4.74 mL/min/kg | 20.1 mL/min/kg |  |  |  | O=S1(=O)CCN(C2CCN(CC(F)(F)F)CC2)CC1
35 |  | 32.2 mL/min/kg | 94.5 mL/min/kg | 94.4 µg/mL (≈ 186 µM) |  |  | CN(c1ncccc1CNc1nc(Nc2ccc3c(c2)CC(=O)N3)ncc1C(F)(F)F)S(C)(=O)=O
36 | 1.27 | ≤ 4.74 mL/min/kg | 132 mL/min/kg | 32.6 µg/mL (≈ 157 µM) |  |  | CN(CC1(O)CCCC1)c1ncccn1
37 | 1.37 | ≤ 4.74 mL/min/kg | 24.3 mL/min/kg |  |  |  | CN(C)C(=O)C(C)(C)NC(=O)OC(C)(C)C
38 |  | 47.5 mL/min/kg | 591 mL/min/kg | 6.6 µg/mL (≈ 18.3 µM) | 0.0014 | 0.00541 | CCN(C/C=C\c1ccc(C2CCCCC2)c(Cl)c1)C1CCCCC1

Row | MDR1-MDCK efflux ratio | intrinsic clearance, human liver microsomes | intrinsic clearance, rat liver microsomes | aqueous solubility | fraction unbound, human plasma | fraction unbound, rat plasma | SMILES
39 |  | ≤ 4.74 mL/min/kg | ≤ 10.7 mL/min/kg | 48.8 µg/mL (≈ 209 µM) |  |  | O=C(Cn1ccnc1)NCc1ccccc1F
40 | 9.46 | 8.98 mL/min/kg | 41.2 mL/min/kg |  |  |  | CC(=O)NC[C@H]1C[C@]2(C)[C@@H](CCCC[C@]2(C)O)N1CC1(O)CCOCC1
41 | 0.926 | ≤ 4.74 mL/min/kg | 94.4 mL/min/kg | 38.2 µg/mL (≈ 149 µM) |  |  | Cc1noc(CCNc2ncnc3ccccc23)n1
42 | 6.05 | 187 mL/min/kg | 1930 mL/min/kg |  |  |  | CC(C)N(CCCNC(=O)Nc1ccc(C(C)(C)C)cc1)C[C@@H]1O[C@@H](n2ccc3c(N)ncnc32)[C@H](O)[C@H]1O
43 | 20.3 | 7.62 mL/min/kg | 191 mL/min/kg |  |  |  | Cc1c[nH]c(C(=O)NCC2(N3CCCCC3)CCCC2)n1
44 |  |  |  |  | 0.66 | 0.715 | CC(=O)Nc1ncc(C(=O)O)s1
45 | 4.86 | ≤ 4.74 mL/min/kg | 11.2 mL/min/kg | 19.8 µg/mL (≈ 62.4 µM) |  |  | CNC(=O)C1CCN(Cc2ncc(-c3ccc(F)cc3)o2)CC1
46 | 1.09 | 141 mL/min/kg | 643 mL/min/kg | 24.6 µg/mL (≈ 59.9 µM) |  |  | Cc1ccc(NC(=O)CN2CCCN(c3ccc(C(F)(F)F)cn3)CC2)c(F)c1
47 | 0.651 | 122 mL/min/kg | 1470 mL/min/kg | 55.8 µg/mL (≈ 205 µM) |  |  | O=C1CCC(=O)N1CCN1CCCCc2ccccc21
48 | 0.855 | ≤ 4.74 mL/min/kg | 12.4 mL/min/kg | 28.4 µg/mL (≈ 130 µM) |  |  | C#CCNC(=O)c1cc(C(C)C)nn1CC
49 | 0.876 | 139 mL/min/kg | 128 mL/min/kg | 7 µg/mL (≈ 17.7 µM) |  |  | O=C(CSc1nc2nc(O)cc(O)c2s1)c1ccc(-c2ccccc2)cc1
50 |  | 87.3 mL/min/kg | 705 mL/min/kg |  |  |  | N#CC1(NC(=O)Cc2cc3c(ccc4ccccc43)o2)CCOCC1
51 | 0.537 | 45.7 mL/min/kg |  |  | 0.0008 |  | c1sc(NCC2CCCO2)nc1C12CC3CC(CC(C3)C1)C2 (configuration not stated)
52 |  | 81.8 mL/min/kg | 238 mL/min/kg |  |  |  | CN1CCN(C(=O)c2ccc3cc(CCNc4ncnc5ccc(C#N)cc45)ccc3c2)CC1
53 |  | 61.6 mL/min/kg | 1090 mL/min/kg |  |  |  | O=C(Nc1ncccc1OC(F)F)C1CCCCC1
54 | 2.71 | ≤ 4.74 mL/min/kg | 63.5 mL/min/kg |  |  |  | COCc1noc(CNC(=O)N(C)[C@@H](C)c2ccccc2)n1
55 | 0.358 |  |  | 0.1 µg/mL (≈ 0.367 µM) |  |  | Fc1cccc(Cn2nnc(-c3ccccc3)n2)c1F
56 | 1.81 | 21.5 mL/min/kg | 247 mL/min/kg |  |  |  | CS(=O)(=O)NC[C@H]1CC[C@H](Nc2nc3c(s2)CCSc2ccccc2-3)CC1
57 | 0.314 | 20.7 mL/min/kg | 76.3 mL/min/kg | 4.11 µg/mL (≈ 12.8 µM) |  |  | O=C(Nc1ccc(F)cc1)c1cc(C2CC2)nn1-c1ccccc1

Row | SMILES | MDR1-MDCK efflux ratio | intrinsic clearance, human liver microsomes | intrinsic clearance, rat liver microsomes | aqueous solubility | fraction unbound, human plasma | fraction unbound, rat plasma
58 | CN(c1nc2ccccc2o1)C1CCN(C2CCOCC2)CC1 |  | 438 mL/min/kg | 117 mL/min/kg |  |  | 
59 | Cc1cc(C)nc(NCc2cnc(C)c(C)c2)n1 | 0.622 | 12.5 mL/min/kg | 162 mL/min/kg | 13.3 µg/mL (≈ 54.9 µM) |  | 
60 | C[C@@H](CN1CCC(n2c(=O)[nH]c3cc(Br)ccc32)CC1)NC(=O)[C@@H]1C[C@H]1c1ccccc1 |  |  | 574 mL/min/kg |  |  | 
